From patent US7183295B2, “PPAR-activating compound and pharmaceutical composition comprising the compound” (Kowa Co., Ltd., priority 2003, dated 2007)
Like-named read-outs stand apart in the source and are kept apart here.

Key:
Format in all cases: cell-based
[1] = biological target: T1, human PPARδ (137–441aa) ligand binding domain (Homo sapiens, UniProt Q03181); assay: PPAR transfection (Gal4-LBD luciferase reporter) assay, hPPARδ; details: read-out: hPPAR, EC50 δ (agonist activity)
T1 construct: δ (137–441aa); expressed in transfected cells; host or cells: COS-7
T1 sequence (Q03181 137-441): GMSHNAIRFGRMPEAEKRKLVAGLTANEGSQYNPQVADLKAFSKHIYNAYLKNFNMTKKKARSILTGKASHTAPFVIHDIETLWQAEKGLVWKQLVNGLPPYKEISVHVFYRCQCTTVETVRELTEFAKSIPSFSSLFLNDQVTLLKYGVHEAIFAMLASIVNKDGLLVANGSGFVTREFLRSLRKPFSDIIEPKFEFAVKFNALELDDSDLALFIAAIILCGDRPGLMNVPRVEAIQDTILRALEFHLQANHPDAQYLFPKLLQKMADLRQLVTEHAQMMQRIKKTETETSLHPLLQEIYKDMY
Method: (§1) COS-7 cells, which is African green monkey kidney cell line, were used for all transfection assays. Cells were cultured in DMEM medium supplemented with 10% fetal bovine serum, glutamic acid, and an antibiotic under humidified 5% CO2 atmosphere.
(§2) Cells were transfected by lipofectamine reagent with a mixture containing expression plasmid, firefly luciferase reporter plasmid. And a β-galactosidase expression plasmid used as an internal control for transfection efficiency.
(§3) Transiently transfected cells were incubated with DMEM with 0.2% FCS with or without compound. And after 16 hours, luciferase activity and β-galactosidase activity of cell lysate were measured.
(§4) Each compound was dissolved in and diluted with dimethyl sulfoxide (DMSO), and the DMSO concentration of the DMEM medium (containing 0.2% serum) was adjusted to 0.1% upon treatment of cells.

[2] = biological target: T2, human PPARγ (182–505aa) ligand binding domain (Homo sapiens, UniProt P37231); assay: PPAR transfection (Gal4-LBD luciferase reporter) assay, hPPARγ; details: read-out: hPPAR, EC50 γ (agonist activity)
T2 construct: γ(182–505aa); expressed in transfected cells; host or cells: COS-7
T2 sequence (P37231 182-505): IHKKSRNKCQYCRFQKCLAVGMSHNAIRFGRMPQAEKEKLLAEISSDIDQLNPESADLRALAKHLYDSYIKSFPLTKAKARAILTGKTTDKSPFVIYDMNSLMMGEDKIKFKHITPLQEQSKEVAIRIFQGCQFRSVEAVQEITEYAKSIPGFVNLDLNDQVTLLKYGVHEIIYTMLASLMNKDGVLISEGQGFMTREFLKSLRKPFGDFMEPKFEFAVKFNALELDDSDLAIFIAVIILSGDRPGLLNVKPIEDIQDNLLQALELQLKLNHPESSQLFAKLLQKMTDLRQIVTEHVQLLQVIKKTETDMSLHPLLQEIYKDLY
Method: as §1, §2, §3, §4

[3] = biological target: T3, human PPARα (166–467aa) ligand binding domain (Homo sapiens, UniProt Q07869); assay: PPAR transfection (Gal4-LBD luciferase reporter) assay, hPPARα; details: read-out: hPPAR, EC50 α (agonist activity)
T3 construct: human PPARα (166–467aa); expressed in transfected cells; host or cells: COS-7
T3 sequence (Q07869 166-467): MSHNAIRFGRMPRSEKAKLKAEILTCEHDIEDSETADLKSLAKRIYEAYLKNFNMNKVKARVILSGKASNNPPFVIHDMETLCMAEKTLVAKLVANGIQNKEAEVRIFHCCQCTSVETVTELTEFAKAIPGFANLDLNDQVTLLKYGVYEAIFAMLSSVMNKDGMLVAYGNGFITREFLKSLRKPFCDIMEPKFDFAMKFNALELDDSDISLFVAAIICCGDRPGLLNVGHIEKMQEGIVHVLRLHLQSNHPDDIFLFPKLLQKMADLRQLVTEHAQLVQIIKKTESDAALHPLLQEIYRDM
Method: as §1, §2, §3, §4

[4] = transfected COS-7 cells, 16 hours, luciferase activity

| EC50 [1, 4] | EC50 [2, 4] | EC50 [3, 4] | EC50 [1] | EC50 [2] | EC50 [3] | Structure (SMILES) |
| --- | --- | --- | --- | --- | --- | --- |
| 1600 nM | 9100 nM | 80 nM | – | – | – | CCC(Oc1cccc(CCN(CCCOc2ccccc2)c2nc3cc(F)ccc3o2)c1)C(=O)O (stereo not drawn) [Example 39, 2-[3-[2-[N-(5-Fluorobenzoxazol-2-yl)-N-3-phenoxypropyl]aminoethyl]phenoxy]butyric acid] |
| > 50000 nM | 2000 nM | 40 nM | – | – | – | CCC(Oc1cccc(CCN(CCOc2ccccc2)c2nc3ccccc3o2)c1)C(=O)O (stereo not drawn) [Example 41, 2-[3-[2-[N-(Benzoxazol-2-yl)-N-2-phenoxyethyl]aminoethyl]phenoxy]butyric acid] |
| 5300 nM | > 100000 nM | 70 nM | – | – | – | CC(Oc1cccc(CCN(CCOc2ccccc2)c2nc3cc(F)ccc3o2)c1)C(=O)O (stereo not drawn) [Example 43, 2-[3-[2-[N-(5-Fluorobenzoxazol-2-yl)-N-2-phenoxyethyl]aminoethyl]phenoxy]propionic acid] |
| 1600 nM | > 100000 nM | 80 nM | – | – | – | COc1ccc2oc(N(CCOc3ccccc3)CCc3cccc(OC(C)C(=O)O)c3)nc2c1 (stereo not drawn) [Example 44, 2-[3-[2-[N-(5-Methoxybenzoxazol-2-yl)-N-2-phenoxyethyl]aminoethyl]phenoxy]propionic acid] |
| 1800 nM | 6300 nM | 10 nM | – | – | – | CCC(Oc1cccc(CCN(CCOc2ccc(OC)cc2)c2nc3ccccc3o2)c1)C(=O)O (stereo not drawn) [Example 45, 2-[3-[2-[N-(Benzoxazol-2-yl)-N-2-(4-methoxyphenoxy)ethyl]aminoethyl]phenoxy]butyric acid] |
| 1800 nM | > 100000 nM | 10 nM | – | – | – | CCC(Oc1cccc(CCN(CCOc2ccc(OC)cc2)c2nc3cc(F)ccc3o2)c1)C(=O)O (stereo not drawn) [Example 46, 2-[3-[2-[N-(5-Fluorobenzoxazol-2-yl)-N-2-(4-methoxyphenoxy)ethyl]aminoethyl]phenoxy]butyric acid] |
| 1500 nM | > 50000 nM | 40 nM | – | – | – | CCC(Oc1cccc(CCN(CCOc2ccc(OC)cc2)c2nc3cc(Cl)ccc3o2)c1)C(=O)O (stereo not drawn) [Example 47, 2-[3-[2-[N-(5-Chlorobenzoxazol-2-yl)-N-2-(4-methoxyphenoxy)ethyl]aminoethyl]phenoxy]butyric acid] |
| 2000 nM | 5200 nM | 80 nM | – | – | – | CCC(Oc1cccc(CCN(CCOc2ccc(OC)cc2)c2nc3cc(OC)ccc3o2)c1)C(=O)O (stereo not drawn) [Example 48, 2-[3-[2-[N-(5-Methoxybenzoxazol-2-yl)-N-2-(4-methoxyphenoxy)ethyl]aminoethyl]phenoxy]butyric acid] |
| 1500 nM | 1500 nM | 20 nM | – | – | – | CCC(Oc1cccc(CCN(CCCOc2ccc(OC)cc2)c2nc3cc(F)ccc3o2)c1)C(=O)O (stereo not drawn) [Example 49, 2-[3-[2-[N-(5-Fluorobenzoxazol-2-yl)-N-3-(4-methoxyphenoxy)propyl]aminoethyl]phenoxy]butyric acid] |
| 1400 nM | 2600 nM | 40 nM | – | – | – | CCC(Oc1cccc(CCN(CCCOc2ccc(F)cc2)c2nc3ccccc3o2)c1)C(=O)O (stereo not drawn) [Example 50, 2-[3-[2-[N-(Benzoxazol-2-yl)-N-3-(4-fluorophenoxy)propyl]aminoethyl]phenoxy]butyric acid] |
| 1400 nM | 3800 nM | 30 nM | – | – | – | CCC(Oc1cccc(CCN(CCCOc2ccc(F)cc2)c2nc3cc(OC)ccc3o2)c1)C(=O)O (stereo not drawn) [Example 51, 2-[3-[2-[N-3-(4-Fluorophenoxy)propyl-N-(5-methoxybenzoxazol-2-yl)]aminoethyl]phenoxy]butyric acid] |
| 400 nM | 2000 nM | 10 nM | – | – | – | CCC(Oc1cccc(CCN(CCCOc2ccc(Cl)cc2)c2nc3cc(OC)ccc3o2)c1)C(=O)O (stereo not drawn) [Example 52, 2-[3-[2-[N-3-(4-Chlorophenoxy)propyl-N-(5-methoxybenzoxazol-2-yl)]aminoethyl]phenoxy]butyric acid] |
| 1900 nM | 3900 nM | 60 nM | – | – | – | CCC(Oc1cccc(CCN(CCCOc2ccc(Cl)cc2)c2nc3ccccc3o2)c1)C(=O)O (stereo not drawn) [Example 53, 2-[3-[2-[N-(Benzoxazol-2-yl)-N-3-(4-chlorophenoxy)propyl]aminoethyl]phenoxy]butyric acid] |
| > 100000 nM | 1100 nM | 30 nM | – | – | – | CC(C)(Oc1cccc(CCN(CCOc2ccccc2)c2nc3ccccc3o2)c1)C(=O)O [Example 78, 2-[3-[2-[N-(Benzoxazol-2-yl)-N-2-phenoxyethyl]aminoethyl]phenoxy]-2-methylpropionic acid] |
| 2500 nM | 1200 nM | 2 nM | – | – | – | COc1ccc(OCCCN(Cc2cccc(O[C@H](C)C(=O)O)c2)c2nc3ccccc3o2)cc1 [Example 82, (R)-2-[3-[[N-(Benzoxazol-2-yl)-N-3-(4-methoxyphenoxy)propyl]aminomethyl]phenoxy]propionic acid] |
| 1600 nM | 910 nM | 2 nM | – | – | – | CC[C@@H](Oc1cccc(CN(CCCOc2ccccc2)c2nc3ccccc3o2)c1)C(=O)O [Example 83, (R)-2-[[3-[N-(Benzoxazol-2-yl)-N-3-phenoxypropyl]aminomethyl]phenoxy]butyric acid] |
| 1200 nM | 940 nM | 3 nM | – | – | – | CC[C@@H](Oc1cccc(CN(CCCOc2ccc(F)cc2)c2nc3ccccc3o2)c1)C(=O)O [Example 87, (R)-2-[[3-[N-(Benzoxazol-2-yl)-N-3-(4-fluorophenoxy)propyl]aminomethyl]phenoxy]butyric acid] |
| 3700 nM | 2900 nM | 11 nM | – | – | – | C[C@@H](Oc1cccc(CN(CCCOc2ccccc2)c2nc3ccccc3o2)c1)C(=O)O [Example 88, (R)-2-[[3-[N-(Benzoxazol-2-yl)-N-3-phenoxypropyl]aminomethyl]phenoxy]propionic acid] |
| 5100 nM | > 10000 nM | 9 nM | – | – | – | CC(Oc1cccc(CN(CCCC(=O)c2ccccc2)c2nc3ccccc3o2)c1)C(=O)O (stereo not drawn) [Example 93, 2-[3-[[N-(Benzoxazol-2-yl)-N-(4-oxo-4-phenylbutyl)]aminomethyl]phenoxy]propionic acid] |
| 1200 nM | 1100 nM | 1 nM | – | – | – | COc1ccc(OCCCN(Cc2cccc(OC(C)C(=O)O)c2)c2nc3ccccc3s2)cc1 (stereo not drawn) [Example 96] |
| – | – | – | 1100 nM | 1000 nM | 3 nM | CCC(Oc1cccc(CN(CCCOc2ccccc2)c2nc3cc(F)ccc3o2)c1)C(=O)O (stereo not drawn) [Example 132] |
| 1800 nM | 1300 nM | 7 nM | – | – | – | CCC(Oc1cccc(CN(CCCOc2ccc(F)cc2)c2nc3ccc(F)cc3o2)c1)C(=O)O (stereo not drawn) [Example 140] |
| 100 nM | 200 nM | 1 nM | – | – | – | CCC(Oc1cccc(CN(CCCOc2ccc(C)cc2)c2nc3ccccc3o2)c1)C(=O)O (stereo not drawn) [Example 146] |
| 1400 nM | 2500 nM | 3 nM | – | – | – | Cc1ccc2oc(N(CCCOc3ccc(F)cc3)Cc3cccc(OC(C)C(=O)O)c3)nc2c1 (stereo not drawn) [Example 153] |
| 1800 nM | > 10000 nM | 11 nM | – | – | – | Cc1ccc2oc(N(CCCOc3ccccc3)Cc3cccc(OC(C)C(=O)O)c3)nc2c1 (stereo not drawn) [Example 155] |
| 1300 nM | 1200 nM | 4 nM | – | – | – | CC(Oc1cccc(CN(CCCOc2ccc3c(c2)OCO3)c2nc3ccccc3o2)c1)C(=O)O (stereo not drawn) [Example 157] |
| 1100 nM | 1600 nM | 5 nM | – | – | – | CCC(Oc1cccc(CN(CCCOc2ccccc2)c2nc3cc4c(cc3o2)OCO4)c1)C(=O)O (stereo not drawn) [Example 158] |
| 1500 nM | > 10000 nM | 9 nM | – | – | – | CC(Oc1cccc(CN(CCCOc2ccccc2)c2nc3cc4c(cc3o2)OCO4)c1)C(=O)O (stereo not drawn) [Example 159] |
